The text below walks through data of PubChem BioAssay (NCI).

Some test systems named below: HT29 colon; ACHN renal; 786-0 renal; OVCAR-5 ovarian; LOX IMVI melanoma; EKVX NSCLC; SK-MEL-2 melanoma; UACC-257 melanoma.
What all share (test): DTP human tumour cell line panel, 48 h

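Interpolation was linear, between the two tested concentrations surrounding the appropriate level; five concentrations were tested over 48 hours in 96-well plates. Abbreviation: GI50, concentration required for 50% inhibition of growth. TGI: concentration producing complete growth inhibition.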

As usually defined, the GI50 is the concentration at which growth is held to half of that of the control. As usually defined, the TGI is the concentration at which net growth stops. Lower therefore signals greater sensitivity of the cells. With `Cn1cc(-c2csc(-c3cn(CCCCN4CCCCC4)c4ccccc34)n2)c2cccnc21`, the GI50 in the assay with HT29 colon was 1.58 µM; in the assay with ACHN renal, 1.67 µM; in the assay with 786-0 renal, 1.64 µM; in the assay on OVCAR-5 ovarian it was 1.6 µM; in the assay with LOX IMVI melanoma, 1.71 µM; with EKVX NSCLC it was 1.58 µM. For the same molecule, the TGI worked out at 3.1 µM in the assay with HT29 colon; 3.03 µM in the assay on ACHN renal; 3.05 µM in the assay on 786-0 renal; 3.06 µM in the assay with OVCAR-5 ovarian; 3.21 µM in the assay on LOX IMVI melanoma; 3.03 µM with EKVX NSCLC.
For the molecule `COC(=O)C1C(O)C(C(=O)OC)C(C)N(C)C1C` (stereo unspecified), the TGI with SK-MEL-2 melanoma, in the assay with HT29 colon, with UACC-257 melanoma, with ACHN renal, with 786-0 renal and in the assay on OVCAR-5 ovarian was over 100 µM throughout. Further, the TGI with LOX IMVI melanoma and in the assay with EKVX NSCLC was over 100 µM in each case.
On to `O=C(c1ccco1)c1c(C(F)(F)F)n([O-])c2ccc(C(F)(F)F)cc2[n+]1=O`, for which the GI50 with SK-MEL-2 melanoma was 1.71 µM; in the assay with HT29 colon, 0.243 µM; in the assay on UACC-257 melanoma it was 1.49 µM; in the assay with ACHN renal, 0.168 µM; in the assay on 786-0 renal, 0.426 µM; in the assay on OVCAR-5 ovarian it was 0.38 µM. For the same molecule, the GI50 in the assay with LOX IMVI melanoma is 0.127 µM; in the assay with EKVX NSCLC it was 0.727 µM. For the same molecule, the TGI stood at 3.49 µM in the assay on SK-MEL-2 melanoma; 0.674 µM in the assay on HT29 colon; 3.06 µM with UACC-257 melanoma; 0.362 µM with ACHN renal; 0.831 µM in the assay with 786-0 renal; 1.38 µM in the assay with OVCAR-5 ovarian. Moreover, the TGI with LOX IMVI melanoma was determined as 0.257 µM; with EKVX NSCLC it was 2.07 µM.
Take `O=C(Nc1cc(Cl)ccc1O)c1ccc(Nc2ccnc(C(F)(F)F)c2)cc1`: the GI50 in the assay with HT29 colon is 6.35 µM; with UACC-257 melanoma, 3.53 µM; with ACHN renal, 2.35 µM; in the assay on 786-0 renal it was 3.61 µM; with OVCAR-5 ovarian it was 3.61 µM; with LOX IMVI melanoma, 3.09 µM. Besides, in the assay on EKVX NSCLC, the GI50 was 2.84 µM. The TGI was over 100 µM with HT29 colon; over 100 µM in the assay on UACC-257 melanoma; 7.42 µM in the assay on ACHN renal; over 100 µM in the assay on 786-0 renal; over 100 µM with OVCAR-5 ovarian; 76.9 µM in the assay with LOX IMVI melanoma. Further, the TGI with EKVX NSCLC is 9.63 µM.
For the molecule `c1coc(-c2c3ccc(=[N+]4CCCCC4)cc-3oc3cc(N4CCCCC4)ccc23)c1`, the GI50 in the assay on SK-MEL-2 melanoma was 0.119 µM; in the assay with UACC-257 melanoma it was 0.0432 µM; in the assay on ACHN renal, 0.0327 µM; with 786-0 renal, 0.0455 µM; in the assay on OVCAR-5 ovarian, 0.0946 µM. The total growth inhibition concentration (TGI) in the assay with SK-MEL-2 melanoma worked out at 1.09 µM; in the assay on UACC-257 melanoma, 0.191 µM; with ACHN renal, 0.12 µM; in the assay on 786-0 renal, 0.424 µM; in the assay with OVCAR-5 ovarian, 1.12 µM.
As to `COc1cc(/C=C\c2cc(OC)c(OC)c(OC)c2)cc(N/C=C\C(=O)c2c[nH]c3ccccc23)c1OC`, the GI50 in the assay on SK-MEL-2 melanoma was 2.21 µM; in the assay with HT29 colon it was 2.28 µM; in the assay on UACC-257 melanoma, 3.17 µM; in the assay on ACHN renal, 1.75 µM; in the assay on 786-0 renal, 2.04 µM; in the assay with OVCAR-5 ovarian it was 2.45 µM. The TGI in the assay with SK-MEL-2 melanoma was 4.68 µM; with HT29 colon, 5.14 µM; in the assay with UACC-257 melanoma it was 10.8 µM; with ACHN renal it was 3.39 µM; with 786-0 renal it was 4.14 µM; in the assay with OVCAR-5 ovarian, 7.03 µM.
For the molecule `COC(c1ccc(C(C)(C)C)cc1)(c1ccc(C(C)(C)C)cc1)c1ccc(C(C)(C)C)cc1`, the TGI in the assay on SK-MEL-2 melanoma, with HT29 colon, in the assay with ACHN renal, in the assay on 786-0 renal, with OVCAR-5 ovarian and in the assay with LOX IMVI melanoma was over 100 µM throughout. Moreover, in the assay with EKVX NSCLC, the TGI is over 100 µM.
Consider `CC1CC(O)C(=O)C(O[C@@H]2C[C@@H]3CC[C@@H]4[C@H](CC[C@]5(C)C(C6=CC(=O)OC6)CC[C@]45O)[C@@]3(C=O)C[C@H]2O)O1` (stereo partly specified), for which the TGI in the assay with HT29 colon stood at 0.171 µM; with UACC-257 melanoma, 0.418 µM; with ACHN renal it was 0.0406 µM; in the assay with 786-0 renal it was 0.0341 µM; in the assay on OVCAR-5 ovarian, 0.283 µM; with LOX IMVI melanoma it was 0.0681 µM. Also, the TGI in the assay with EKVX NSCLC amounted to 0.0542 µM.
In the case of `COc1ccc(-c2nn(-c3cccc(Cl)c3)cc2-c2cc(-c3ccccc3)[nH]c(=O)c2C#N)cc1`, the GI50 with SK-MEL-2 melanoma was 2.13 µM; in the assay with HT29 colon, 19.5 µM; in the assay on ACHN renal, 1.83 µM; in the assay with 786-0 renal, 1.6 µM; with OVCAR-5 ovarian it was 32.3 µM; in the assay with LOX IMVI melanoma it was 8.97 µM. For the same molecule, the GI50 with EKVX NSCLC was 1.37 µM. For the same molecule, the TGI with SK-MEL-2 melanoma is 9.35 µM; in the assay on HT29 colon, over 50 µM; with ACHN renal, 10.7 µM; in the assay on 786-0 renal, 7.25 µM; with OVCAR-5 ovarian, over 50 µM; in the assay with LOX IMVI melanoma, over 50 µM. For the same molecule, the concentration for total growth inhibition (TGI) in the assay on EKVX NSCLC is over 50 µM.
In the case of `CC1(C)CN=C(NN=C(/C=C/c2ccc(C(F)(F)F)cc2)/C=C/c2ccc(C(F)(F)F)cc2)NC1`, the GI50 in the assay on HT29 colon is 0.785 µM; in the assay with UACC-257 melanoma, 1.56 µM; in the assay on ACHN renal, 1.19 µM; in the assay with 786-0 renal it was 1.78 µM; with OVCAR-5 ovarian, 1.32 µM; in the assay with LOX IMVI melanoma, 1.39 µM. Moreover, the TGI in the assay with HT29 colon came out at 2.14 µM; in the assay with UACC-257 melanoma, 2.96 µM; in the assay with ACHN renal, 2.48 µM; in the assay with 786-0 renal it was 3.42 µM; with OVCAR-5 ovarian, 2.68 µM; in the assay on LOX IMVI melanoma it was 2.8 µM.
With `CC(C)c1[nH]nc2c1N=C(c1ccccc1Cl)c1cc([N+](=O)[O-])ccc1N2`, the GI50 was 5.49 µM with SK-MEL-2 melanoma; 8.72 µM in the assay on HT29 colon; 10.1 µM with UACC-257 melanoma; 5.45 µM with ACHN renal; 5.74 µM in the assay on 786-0 renal; 12.2 µM with OVCAR-5 ovarian. Besides, the GI50 in the assay on LOX IMVI melanoma was 5 µM. The TGI in the assay on SK-MEL-2 melanoma is 13.4 µM; in the assay on HT29 colon, over 22.2 µM; in the assay with UACC-257 melanoma, over 25 µM; in the assay with ACHN renal, 20.4 µM; with 786-0 renal it was over 24 µM; with OVCAR-5 ovarian it was over 25 µM. This molecule came in with a TGI with LOX IMVI melanoma of over 17.5 µM.
`COc1ccc(-c2nc(-c3cc(OC)cc(OC)c3)[nH]c2-c2ccc(OC)cc2)cc1`: the GI50 was 4.97 µM with HT29 colon; 23.8 µM in the assay on UACC-257 melanoma; 5.56 µM in the assay with ACHN renal; over 100 µM in the assay with 786-0 renal; over 100 µM in the assay on OVCAR-5 ovarian. Also, the TGI in the assay on HT29 colon, in the assay on UACC-257 melanoma, in the assay with ACHN renal, in the assay on 786-0 renal and in the assay on OVCAR-5 ovarian was over 100 µM each time.
